pIC50: −log10 of the molar value. Values after ≈ are worked out from the molar mass of the structure shown.
Key:
Type in all cases: biochemical
[1] = system: BD29555 CBH I variant R273K/R422K (parent SEQ ID NO:1; full length SEQ ID NO:301, mature SEQ ID NO:302); experiment: PASC assay, cellobiose inhibition, BD29555 R273K/R422K variant; conditions: 10 g/L cellobiose, PASC substrate, FIG. 3
Protocol: (§1) Phosphoric Acid Swollen Cellulose (PASC) Assay: This assay measures the activity of CBH I using PASC as the substrate. During the assay, the concentration of PASC is monitored by a fluorescent signal derived from calcofluor binding to PASC (ex/em 365/440 nm). The assay is initiated by mixing enzyme (15 μl) and reaction buffer (85 μl of 0.2% PASC, 200 mM MES, pH 6), and then incubating at 35° C. while shaking at 225 RPM. After 2 hours, one reaction volume of calcofluor stop solution (100 μg/ml in 500 mM glycine pH 10) is added and fluorescence read-outs obtained (ex/em 365/440 nm).
(§2) Cellobiose Tolerance Assays (or Cellobiose Inhibition Assays): Tolerance to cellobiose (or inhibition caused by cellobiose) was tested in two ways in the CBH I assays. A direct-dose tolerance method can be applied to all of the CBH I assays (i.e., 4-MUL, PASC, and/or bagasse assays), and entails the exogenous addition of a known amount of cellobiose into assay mixtures. A different indirect method entails the addition of an excess amount of β-glucosidase (BG) to PASC and bagasse assays (typically, 1 mg β-glucosidase/g solids loaded). BG will enzymatically hydrolyze the cellobiose generated during these assays; therefore, CBH I activity in the presence of BG can be taken as a measure of activity in the absence of cellobiose. […]

[2] = system: BD29555 CBH I variant R273K/Y274Q/D281K/Y410H/P411G/R422K (parent SEQ ID NO:1); experiment: 4-MUL assay, cellobiose inhibition, BD29555 R273K/Y274Q/D281K/Y410H/P411G/R422K variant; conditions: 250 mg/L cellobiose, (activity with cellobiose)/(activity without cellobiose)*100
Protocol: (§3) 4-Methylumbelliferyl Lactoside (4-MUL) Assay: This assay measures the activity of CBH I on the fluorogenic substrate 4-MUL (also known as MUL). Assays were run in a costar 96-well black bottom plate, where reactions were initiated by the addition of 4-MUL to enzyme in buffer (2 mM 4-MUL in 200 mM MES pH 6). Enzymatic rates were monitored by fluorescent readouts over five minutes on a SPECTRAMAX™ plate reader (ex/em 365/450 nm). Data in the linear range was used to calculate initial rates (Vo).
as §2, with “cellobiose. Furthermore, when activity in the presence and absence of BG are similar, this indicates tolerance to cellobiose.” for “cellobiose.”

[3] = biological target: T. reesei CBH I variant R268K/R411A (parent SEQ ID NO:2) (Trichoderma reesei, UniProt A0A024RXP8, R268K/R411A); experiment: 4-MUL assay, cellobiose inhibition, T. reesei CBH I R268K/R411A; conditions: read-out: % Activity in 4-MUL Assay (+/−Cellobiose), 250 mg/L cellobiose, (activity with cellobiose)/(activity without cellobiose)*100
T. reesei CBH I variant R268K/R411A (parent SEQ ID NO:2), sequence (A0A024RXP8 18-514 R268K/R411A): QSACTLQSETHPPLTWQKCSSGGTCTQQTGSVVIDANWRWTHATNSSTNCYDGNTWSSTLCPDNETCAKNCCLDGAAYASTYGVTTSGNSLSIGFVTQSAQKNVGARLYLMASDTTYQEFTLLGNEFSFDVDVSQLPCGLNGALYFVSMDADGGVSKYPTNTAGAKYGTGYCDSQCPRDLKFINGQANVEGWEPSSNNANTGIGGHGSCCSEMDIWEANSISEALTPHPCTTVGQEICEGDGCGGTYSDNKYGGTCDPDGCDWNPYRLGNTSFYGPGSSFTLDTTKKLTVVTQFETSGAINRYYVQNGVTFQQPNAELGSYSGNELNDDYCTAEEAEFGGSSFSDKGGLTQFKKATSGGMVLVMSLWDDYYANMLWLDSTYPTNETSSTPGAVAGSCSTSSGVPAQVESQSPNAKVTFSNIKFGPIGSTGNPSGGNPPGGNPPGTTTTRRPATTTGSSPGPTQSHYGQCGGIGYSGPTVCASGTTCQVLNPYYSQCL
Protocol: as §3
as §2, with “loaded).” for “loaded). BG will enzymatically hydrolyze the cellobiose generated during these assays; therefore, CBH I activity in the presence of BG can be taken as a measure of activity in the absence of cellobiose.”
(§4) Cellobiose product tolerant substitutions were introduced into T. reesei CBH I (SEQ ID NO:2). A panel of variants with single and double alanine and lysine substitutions at R268 and R411 were expressed and analyzed. […]

[4] = system: BD29555 CBH I variant R273A (parent SEQ ID NO:1); experiment: Library screening, 4-MUL assay in presence and absence of cellobiose, BD29555 R273A; conditions: library screen, 250 g/L cellobiose (so in the source), gluconolactone present
Protocol: as §3
(§5) Cellobiose Tolerance Assays (or Cellobiose Inhibition Assays): Tolerance to cellobiose (or inhibition caused by cellobiose) was tested in two ways in the CBH I assays. A direct-dose tolerance method can be applied to all of the CBH I assays (i.e., 4-MUL, PASC, and/or bagasse assays), and entails the exogenous addition of a known amount of cellobiose into assay mixtures. […]
(§6) The wild type CBH I polypeptide BD29555 was mutagenized to identify variants with improved product tolerance. […] This product-release-site library was designed based on residues directly interacting with the cellobiose product in an attempt to identify variants with weakened interactions with cellobiose from which the product would be released more readily than the wild type enzyme. […]

[5] = biological target: T. reesei CBH I variant R268A/R411A (parent SEQ ID NO:2) (Trichoderma reesei, UniProt A0A024RXP8, R268A/R411A); experiment: 4-MUL assay, cellobiose inhibition, T. reesei CBH I R268A/R411A; conditions: read-out: % Activity in 4-MUL Assay (+/−Cellobiose), 250 mg/L cellobiose, (activity with cellobiose)/(activity without cellobiose)*100
T. reesei CBH I variant R268A/R411A (parent SEQ ID NO:2), sequence (A0A024RXP8 18-514 R268A/R411A): as the sequence (A0A024RXP8 18-514 R268K/R411A) above, with K251A counted along it
Protocol: as §3
as §2, with “loaded).” for “loaded). BG will enzymatically hydrolyze the cellobiose generated during these assays; therefore, CBH I activity in the presence of BG can be taken as a measure of activity in the absence of cellobiose.”
as §4

[6] = system: CBH I polypeptide BD29555, wild type, SEQ ID NO:1; experiment: 4-Methylumbelliferyl lactoside (4-MUL) assay, cellobiose inhibition, wild type BD29555
Protocol: as §3
as §2, with “loaded).” for “loaded). BG will enzymatically hydrolyze the cellobiose generated during these assays; therefore, CBH I activity in the presence of BG can be taken as a measure of activity in the absence of cellobiose.”
(§7) Cellobiose dose response curves of the wild-type and R273K/R422K variant of BD29555 were obtained during the 4-MUL assay. Enzyme rates (Vo) were measured in the presence of different concentrations of cellobiose (200 mM MES pH 6, 25° C.). Rates were measured in quadruplicate.

[7] = system: BD29555 CBH I variant R273Q (parent SEQ ID NO:1); experiment: Library screening, 4-MUL assay in presence and absence of cellobiose, BD29555 R273Q; conditions: library screen, 250 g/L cellobiose (so in the source), gluconolactone present
Protocol: as §3, §5, §6

[8] = biological target: T. reesei CBH I variant R268K/R411K (parent SEQ ID NO:2) (Trichoderma reesei, UniProt A0A024RXP8, R268K/R411K); experiment: 4-MUL assay, cellobiose inhibition, T. reesei CBH I R268K/R411K; conditions: read-out: % Activity in 4-MUL Assay (+/−Cellobiose), 250 mg/L cellobiose, (activity with cellobiose)/(activity without cellobiose)*100
T. reesei CBH I variant R268K/R411K (parent SEQ ID NO:2), sequence (A0A024RXP8 18-514 R268K/R411K): as the sequence (A0A024RXP8 18-514 R268K/R411A) above, with A394K counted along it
Protocol: as §3
as §2, with “loaded).” for “loaded). BG will enzymatically hydrolyze the cellobiose generated during these assays; therefore, CBH I activity in the presence of BG can be taken as a measure of activity in the absence of cellobiose.”
as §4

[9] = biological target: T. reesei CBH I variant R268A/R411K (parent SEQ ID NO:2) (Trichoderma reesei, UniProt A0A024RXP8, R268A/R411K); experiment: 4-MUL assay, cellobiose inhibition, T. reesei CBH I R268A/R411K; conditions: read-out: % Activity in 4-MUL Assay (+/−Cellobiose), 250 mg/L cellobiose, (activity with cellobiose)/(activity without cellobiose)*100
T. reesei CBH I variant R268A/R411K (parent SEQ ID NO:2), sequence (A0A024RXP8 18-514 R268A/R411K): as the sequence (A0A024RXP8 18-514 R268K/R411A) above, with K251A, A394K counted along it
Protocol: as §3
as §2, with “loaded).” for “loaded). BG will enzymatically hydrolyze the cellobiose generated during these assays; therefore, CBH I activity in the presence of BG can be taken as a measure of activity in the absence of cellobiose.”
as §4

[10] = biological target: T1, T. reesei CBH I, wild type, SEQ ID NO:2 (Trichoderma reesei, UniProt P62694, INS458P/R459P); experiment: PASC assay, cellobiose inhibition, wild type T. reesei CBH I
T1 sequence (P62694 other isoform, or with tags, fused parts or gaps INS458P/R459P): as the sequence (A0A024RXP8 18-514 R268K/R411A) above, with K251R, A394R counted along it
Protocol: as §1, §2

[11] = system: CBH I polypeptide BD29555, wild type, SEQ ID NO:1; experiment: Phosphoric acid swollen cellulose (PASC) assay, cellobiose inhibition, wild type BD29555; conditions: PASC substrate, FIG. 3
Protocol: as §1, §2

[12] = biological target: T1, T. reesei CBH I, wild type, SEQ ID NO:2; experiment: 4-MUL assay, cellobiose inhibition, wild type T. reesei CBH I; conditions: read-out: % Activity in 4-MUL Assay (+/−Cellobiose)
Protocol: as §3
as §2, with “loaded).” for “loaded). BG will enzymatically hydrolyze the cellobiose generated during these assays; therefore, CBH I activity in the presence of BG can be taken as a measure of activity in the absence of cellobiose.”
as §4

[13] = system: BD29555 CBH I variant R273K/R422K (R268K/R411K by T. reesei numbering; parent SEQ ID NO:1; full length SEQ ID NO:301, mature SEQ ID NO:302); experiment: 4-MUL assay, cellobiose inhibition, BD29555 R273K/R422K variant
Protocol: as §3
Cellobiose Tolerance Assays (or Cellobiose Inhibition Assays): Tolerance to cellobiose (or inhibition caused by cellobiose) was tested in two ways in the CBH I assays. A direct-dose tolerance method can be applied to all of the CBH I assays (i.e., 4-MUL, PASC, and/or bagasse assays), and entails the exogenous addition of a known amount of cellobiose into assay mixtures. A different indirect method entails the addition of an excess amount of β-glucosidase (BG) to PASC and bagasse assays (typically, 1 mg β-glucosidase/g solids loaded). BG will enzymatically hydrolyze the cellobiose generated during these assays; therefore, CBH I activity in the presence of BG can be taken as a measure of activity in the absence of cellobiose. Furthermore, when activity in the presence and absence of BG are similar, this indicates tolerance to cellobiose.
as §6, §7

In the case of `OC[C@H]1O[C@@H](O[C@H]2[C@H](O)[C@@H](O)C(O)O[C@@H]2CO)[C@H](O)[C@@H](O)[C@@H]1O` (stereo partly drawn) [cellobiose], the inhibition by cellobiose [1] was “little inhibition”, the “% Activity in 4-MUL Assay (+/−Cellobiose)” value (“% Activity in 4-MUL Assay” below) [2] was 78% and the activity at 250 µg/mL [3] was > 90%. The product tolerance [4] was “enhanced product tolerance”, the activity at 250 µg/mL [5] was > 90% and the “% Activity in 4-MUL Assay” value ([6]; 250 mg/L cellobiose, (activity with cellobiose)/(activity without cellobiose)*100, wild type BD29555) was 25%. For the same compound, the “half maximal inhibitory concentration (IC50 value)” value ([6]; 4-MUL substrate, 200 mM MES pH 6, 25° C., rates in quadruplicate, FIG. 1A) was 60 mg/L, the product tolerance [7] was “enhanced product tolerance” and the activity at 250 µg/mL [8] was > 90%. For the same compound, the activity at 250 µg/mL [9] was > 90%, the pIC50 [10] was 2.06 and the “cellobiose concentration at which inhibition starts” value ([10]; PASC substrate, FIG. 3) was “around 1 g/L”. The IC50 [11] was 2.2 g/L (≈ 6.43 mM), the “cellobiose concentration at which inhibition starts” value [11] was “around 1 g/L” and the activity at 250 µg/mL [12] was 23%. For the same compound, the “% Activity in 4-MUL Assay” value ([13]; 250 mg/L cellobiose, (activity with cellobiose)/(activity without cellobiose)*100, R273K/R422K) was 95%, the “tolerance to cellobiose (dose response)” value ([13]; 4-MUL substrate, 200 mM MES pH 6, 25° C., FIG. 1B) was “tolerant to cellobiose up to 250 mg/L” and the product tolerance ([13]; library screen, 4-MUL assay, 250 g/L cellobiose (so in the source), gluconolactone present) was “enhanced product tolerance”.
